Four molecules from ChEMBL document CHEMBL1201862, “PubChem BioAssay data set” (2004) can be followed below.

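All cell lines were grown in 96-well plates and treated with compound for 48 hours. GI50 = concentration required for 50% inhibition of growth.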 Calls of active or inactive are those of the source. No stated cut-off is given here; in the data, active = GI50 up to about 1.1 µM and inactive = higher.

Test systems include OVCAR-3; SW-620; UO-31; NCI-H460; OVCAR-8; K562; ACHN; SF-295; MCF7; HOP-92; RPMI-8226; SN12C; MDA-N; NCI-H23; MDA-MB-435; SNB-75; SF-539; TK-10; T47D; IGROV-1.
Experiment in all cases: NCI tumour cell line growth inhibition, 48 h

Turning to `COc1ccc2nc(-c3ccc(O)cc3)cn2c1`, the GI50 in the assay with OVCAR-3 is 82 µM (inactive); in the assay with SW-620 it was 11.7 µM (inactive); in the assay with UO-31 it was 35 µM (inactive); in the assay on NCI-H460, 27.4 µM (inactive); in the assay on OVCAR-8, 51.3 µM (inactive); in the assay on K562 it was 37.1 µM (inactive). Further, the GI50 was 23.3 µM (inactive) in the assay with ACHN; > 100 µM (inactive) in the assay with SF-295; 36 µM (inactive) with MCF7; 95.7 µM (inactive) with HOP-92; 32.2 µM (inactive) in the assay with RPMI-8226; 94.8 µM (inactive) in the assay with SN12C. For the same molecule, the GI50 with MDA-N was 23.4 µM (inactive); in the assay on NCI-H23, 71.9 µM (inactive); with MDA-MB-435 it was 18.5 µM (inactive); with SNB-75 it was 95.5 µM (inactive); with SF-539, 54.1 µM (inactive); with TK-10, 71 µM (inactive). Besides, the values for the GI50 in the assay on T47D and in the assay with IGROV-1 were 89.9 µM (inactive) and 42.4 µM (inactive), respectively.

For the molecule `CC1(C)Oc2ccccc2OC1O` (stereo not given), the GI50 with OVCAR-3, with SW-620, with UO-31, in the assay on NCI-H460, in the assay on OVCAR-8 and with K562 was > 100 µM (inactive) throughout. In addition, the GI50 in the assay on ACHN, with SF-295, in the assay on MCF7, in the assay with HOP-92, in the assay with RPMI-8226 and with SN12C was > 100 µM (inactive) in each case. Besides, the GI50 in the assay with MDA-N, in the assay with NCI-H23, with MDA-MB-435, with SNB-75, in the assay with SF-539 and in the assay on TK-10 was > 100 µM (inactive) each time. Also, the GI50 in the assay with T47D and in the assay on IGROV-1 was > 100 µM (inactive) each time.

With `Cc1ccc2c(O)cc(-c3ccccc3)nc2n1`, the GI50 in the assay with OVCAR-3 is 0.0346 µM (active); with SW-620, 0.0389 µM (active); in the assay on UO-31 it was 0.593 µM (active); in the assay with NCI-H460, 0.0574 µM (active); in the assay on OVCAR-8 it was 0.217 µM (active); in the assay with K562, 0.0366 µM (active). For the same molecule, the GI50 in the assay with ACHN was 0.845 µM (active); in the assay on SF-295, 0.0585 µM (active); in the assay on MCF7, 0.0509 µM (active); in the assay on HOP-92 it was 1.44 µM (inactive); with RPMI-8226, 0.115 µM (active); in the assay with SN12C it was 0.416 µM (active). Besides, the GI50 is 0.0106 µM (active) with MDA-N; 0.313 µM (active) with NCI-H23; < 0.01 µM (active) with MDA-MB-435; 0.0664 µM (active) with SNB-75; 0.191 µM (active) with SF-539; 0.12 µM (active) in the assay with TK-10. Moreover, the values for the GI50 in the assay on T47D and in the assay on IGROV-1 were > 100 µM (inactive) and 0.11 µM (active), respectively.

For `CC1=C2C(=C[C@@](C)(CO)[C@@H]2O)C(=O)[C@](C)(O)C12CC2` [ILLUDIN], the GI50 in the assay on OVCAR-3 is 0.0187 µM (active); in the assay with SW-620, 0.00305 µM (active); with UO-31 it was 0.0147 µM (active); in the assay on NCI-H460, 0.00147 µM (active); in the assay on OVCAR-8 it was 0.0133 µM (active); in the assay on K562, 0.012 µM (active). For the same molecule, the GI50 in the assay on ACHN was 0.00849 µM (active); with SF-295, 0.00251 µM (active); in the assay with MCF7, 0.00284 µM (active); in the assay with HOP-92, 0.0232 µM (active); in the assay with RPMI-8226 it was 0.855 µM (active); in the assay on SN12C it was 0.019 µM (active). Also, the GI50 is < 0.0117 µM (active) with MDA-N; 0.0052 µM (active) in the assay on NCI-H23; 0.0156 µM (active) with MDA-MB-435; 0.0138 µM (active) in the assay with SNB-75; 0.00506 µM (active) in the assay on SF-539; 0.0223 µM (active) with TK-10. Also, the GI50 was 0.0123 µM (active) in the assay on T47D and 0.0155 µM (active) with IGROV-1.
